Test results as given in BigSolDB 2.1.

Conditions: in ethylbenzene

CCCCCCCCCCCCCCCCCCCCCCCC
Conditions | solubility (mole fraction)
272.02 K | 0.00269
279.76 K | 0.00689
285.62 K | 0.0142
289.1 K | 0.0224
292.74 K | 0.0346
296 K | 0.0511
299.02 K | 0.0732
301.52 K | 0.0997
303.08 K | 0.117
304.88 K | 0.144
306.15 K | 0.163

CCCCCCCCCCCCCCCCCCCC
Conditions | solubility (mole fraction)
266.52 K | 0.00955
270.33 K | 0.0149
272.73 K | 0.0195
275.75 K | 0.0265
278.21 K | 0.0364
281.94 K | 0.0536
282.8 K | 0.0614
284.97 K | 0.0791
286.15 K | 0.0904
287.19 K | 0.104
288.25 K | 0.116
289.67 K | 0.136
290.53 K | 0.151
291.27 K | 0.164
292.34 K | 0.179
292.97 K | 0.191
293.9 K | 0.204

CCCCCCCCCCCCCCCCCCCCCCC
Conditions | solubility (mole fraction)
271.13 K | 0.00366
280.09 K | 0.0136
285.88 K | 0.0295
288.62 K | 0.0415
292.61 K | 0.0698
295.02 K | 0.094
297.34 K | 0.124
298.77 K | 0.147
300.52 K | 0.173
300.9 K | 0.184

CCCCCCCCCCCCCCCCCCCCCC
Conditions | solubility (mole fraction)
268.67 K | 0.00443
274.22 K | 0.00854
277.47 K | 0.0123
281.39 K | 0.0202
284.43 K | 0.0294
286.56 K | 0.0381
289.51 K | 0.0539
291.7 K | 0.0702
293.53 K | 0.0865
295.46 K | 0.107
296.91 K | 0.127
297.87 K | 0.143
298.81 K | 0.256
299.86 K | 0.171
300.54 K | 0.186
301.25 K | 0.198
302.03 K | 0.213
302.44 K | 0.226

CCCCCCCCCCCCCCCCCCCCC
Conditions | solubility (mole fraction)
262.5 K | 0.0047
268.03 K | 0.01
275.53 K | 0.026
278.56 K | 0.0366
281.9 K | 0.0549
284.95 K | 0.0739
286.6 K | 0.095
288.45 K | 0.115
290 K | 0.14
291.15 K | 0.164
293.16 K | 0.201
294.57 K | 0.235
295.72 K | 0.263
